From ChEMBL document CHEMBL5370608, “Selective and Bioavailable HDAC6 2-(Difluoromethyl)-1,3,4-oxadiazole Substrate Inhibitors and Modeling of Their Bioactivation Mechanism” (J Med Chem, 2023)
Converted amounts (≈) assume the structure as drawn. The source made the active and inactive calls. The calls are words filed in the database; no cut-off is given here.

What was measured:
[1] = Metabolic stability in human liver microsomes assessed as disappearance of parent compound; type: ADME, Microsome; conditions: read-out: CLH
[2] = molecular target: T1, Protein deacetylase HDAC6 (Homo sapiens, UniProt Q9UBN7); assay: Inhibition of HDAC6 in human BEAS-2B cells assessed as deacetylation of acetylated alpha-tubulin level incubated for 24 hrs by Western blot analysis; type: cell-based
T1 sequence (Q9UBN7 whole entry): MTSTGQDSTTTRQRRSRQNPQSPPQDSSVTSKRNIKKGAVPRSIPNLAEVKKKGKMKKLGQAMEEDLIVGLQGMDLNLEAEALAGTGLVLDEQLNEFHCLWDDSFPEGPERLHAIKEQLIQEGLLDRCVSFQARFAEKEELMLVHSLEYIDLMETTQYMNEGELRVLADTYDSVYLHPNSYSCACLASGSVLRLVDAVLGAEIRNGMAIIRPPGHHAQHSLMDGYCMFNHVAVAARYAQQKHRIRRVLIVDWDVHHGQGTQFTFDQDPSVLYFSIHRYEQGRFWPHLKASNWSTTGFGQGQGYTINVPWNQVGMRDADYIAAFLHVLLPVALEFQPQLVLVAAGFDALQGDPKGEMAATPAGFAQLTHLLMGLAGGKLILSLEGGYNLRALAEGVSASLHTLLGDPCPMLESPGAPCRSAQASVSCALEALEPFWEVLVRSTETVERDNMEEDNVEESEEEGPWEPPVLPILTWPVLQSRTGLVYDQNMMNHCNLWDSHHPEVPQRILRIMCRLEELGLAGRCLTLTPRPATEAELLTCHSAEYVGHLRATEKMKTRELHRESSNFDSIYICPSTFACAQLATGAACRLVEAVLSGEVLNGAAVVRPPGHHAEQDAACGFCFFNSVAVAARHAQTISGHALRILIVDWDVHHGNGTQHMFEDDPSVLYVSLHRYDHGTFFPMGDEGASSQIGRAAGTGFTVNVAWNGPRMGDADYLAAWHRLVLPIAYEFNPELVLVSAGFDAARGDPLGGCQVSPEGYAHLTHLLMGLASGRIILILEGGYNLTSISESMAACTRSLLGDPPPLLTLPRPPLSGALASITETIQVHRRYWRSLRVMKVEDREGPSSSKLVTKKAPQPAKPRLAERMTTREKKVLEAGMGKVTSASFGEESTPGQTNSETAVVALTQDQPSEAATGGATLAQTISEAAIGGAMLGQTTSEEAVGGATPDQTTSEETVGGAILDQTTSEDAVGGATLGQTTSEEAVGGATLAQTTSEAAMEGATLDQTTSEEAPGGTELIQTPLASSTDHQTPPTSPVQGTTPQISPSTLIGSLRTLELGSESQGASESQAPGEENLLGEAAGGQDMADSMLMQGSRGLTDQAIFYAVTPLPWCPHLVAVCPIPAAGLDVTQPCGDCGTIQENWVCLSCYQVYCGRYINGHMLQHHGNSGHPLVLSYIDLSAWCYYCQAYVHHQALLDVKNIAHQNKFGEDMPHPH

[3] = Aqueous solubility of the compound at pH 7.4; type: physicochemical
[4] = Chemical stability of compound in sodium carbonate buffer at pH 10 assessed as half life by UPLC analysis; type: physicochemical
THP-1 [5] = assay: Cytotoxicity against human THP-1 cells assessed as reduction in cell viability by alamar blue staining based assay; type: functional
THP-1 [6] = assay: Cytotoxicity against human THP-1 cells assessed as reduction in cell viability measured upto 250 uM by alamar blue staining based assay; type: functional
[7] = molecular target: T1, Protein deacetylase HDAC6; assay: Inhibition of HDAC6 in human BEAS-2B cells assessed as deacetylation of acetylated histone-3 level incubated for 24 hrs by Western blot analysis; type: cell-based
[8] = Chemical stability of compound in sodium phosphate buffer at pH 7.4 assessed as half life by UPLC analysis; type: physicochemical
[9] = Chemical stability of compound in HCL solution at pH 1 assessed as half life by UPLC analysis; type: physicochemical
[10] = molecular target: T1, Protein deacetylase HDAC6; assay: Inhibition of full length TEV-cleavable N-terminal His6-tagged human recombinant HDAC6 using Ac-RGK (Ac)-AMC as substrate preincubated for 20 hrs followed by substrate addition and measured after 3 hrs by microplate reader analysis
[11] = molecular target: T1, Protein deacetylase HDAC6; assay: Stability of the compound assessed as full-length human HDAC6 mediated-drug degradation measured after 96 hrs by time-resolved mass spectrometry analysis; type: ADME
[12] = molecular target: T2, Protein deacetylase HDAC6 (Homo sapiens) (UniProt Q9UBN7); assay: Inhibition of HDAC6 in human BEAS-2B cells assessed as deacetylation of acetylated alpha-tubulin level at 10 uM incubated for 24 hrs by Western blot analysis; type: cell-based
T2 sequence (whole entry): T1 sequence (Q9UBN7 whole entry)

| Compound | microsomal CLint [1] | EC50 [2] | solubility [3] | half-life [4] | IC50 [7] | half-life [8] | half-life [9] | IC50 [10] | Stability [11] | inhibition [12] | IC50 [2] | IC50 (THP-1 [5]; read-out: pIC50 (converted)) | Activity (THP-1 [6]) | IC50 (THP-1 [5]; read-out: IC50) |
| --- | --- | --- | --- | --- | --- | --- | --- | --- | --- | --- | --- | --- | --- | --- |
| FC(F)c1nnc(-c2ccc(Cn3nnc(-c4ccccn4)n3)cc2)o1 | < 3 µL/min/mg | 3160 nM | 14 µM (≈ 4.97 µg/mL) | < 13.7 h | > 10000 nM | 240 h | 7.44 h | 2 nM | – | – | – | > 251000 nM | inactive | – |
| FC(F)c1nnc(-c2cnc(NC3(c4ccccc4)CCC(F)(F)CC3)nc2)o1 | 12 µL/min/mg | 631 nM | 2.6 µM (≈ 1.06 µg/mL) | – | > 10000 nM | – | – | 3.98 nM | Unstable | – | – | 158000 nM | – | 130000 nM |
| COc1cccc(CNC(=O)c2csc(-c3nnn(Cc4ccc(-c5nnc(C(F)(F)F)o5)cc4)n3)c2)c1 | – | – | – | – | – | – | – | 12.6 nM | – | inactive | – | – | – | – |
| COc1cccc(CNC(=O)c2csc(-c3nnn(Cc4ccc(-c5nnc(C(F)F)o5)cc4)n3)c2)c1 | 160 µL/min/mg | – | < 1.6 µM | – | – | – | – | 1.58 nM | – | – | 10 nM | – | – | – |
| FC(F)c1nnc(-c2ccc(Cn3nnnc3-c3ccccn3)cc2)o1 | 5.8 µL/min/mg | > 10000 nM | 2.6 µM (≈ 0.924 µg/mL) | – | > 10000 nM | – | – | 31.6 nM | – | – | – | > 251000 nM | inactive | – |
| COc1cccc(-c2nnn(Cc3ccc(-c4nnc(C(F)F)o4)cn3)n2)c1 | 18 µL/min/mg | 316 nM | 2.9 µM (≈ 1.12 µg/mL) | – | > 10000 nM | – | – | 2 nM | – | – | – | – | – | – |
| FC(F)c1nnc(-c2ccc(Cn3nnc(-c4ccc(Cl)cc4)n3)nc2)o1 | < 3 µL/min/mg | 1260 nM | 1.3 µM (≈ 0.507 µg/mL) | – | > 10000 nM | – | – | 2 nM | – | – | – | – | – | – |
| FC(F)c1nnc(-c2ccc(Cn3nnc(-c4ccccn4)n3)cn2)o1 | < 3 µL/min/mg | – | 120 µM (≈ 42.8 µg/mL) | – | – | – | – | > 10000 nM | – | – | – | – | – | – |
| CNC(=O)c1csc(-c2nnn(Cc3ccc(-c4nnc(C(F)F)o4)cc3)n2)c1 | 7.5 µL/min/mg | 501 nM | 2.3 µM (≈ 0.96 µg/mL) | – | > 10000 nM | – | – | 1 nM | – | – | – | > 251000 nM | inactive | – |
| O=C(NO)c1cc(F)c(Cn2nnc(-c3ccccn3)n2)c(F)c1 | < 3 µL/min/mg | 20 nM | 710 µM (≈ 236 µg/mL) | 504 h | 5010 nM | 1730 h | 624 h | < 0.316 nM | Stable | – | – | 63100 nM | – | 60000 nM |
| COc1cccc(CNC(=O)c2csc(-c3nnn(Cc4ccc(-c5nnc(C)o5)cc4)n3)c2)c1 | – | – | – | – | – | – | – | > 100000 nM | – | – | – | – | – | – |
| FC(F)c1nnc(-c2ccc(Cn3nnc(-c4ccccc4Cl)n3)nc2)o1 | < 3 µL/min/mg | 398 nM | 5.8 µM (≈ 2.26 µg/mL) | – | > 10000 nM | – | – | 0.631 nM | – | – | – | > 251000 nM | inactive | – |

The next lines start with results.

| microsomal CLint [1] | EC50 [2] | solubility [3] | half-life [4] | IC50 [7] | half-life [8] | half-life [9] | IC50 [10] | Stability [11] | inhibition [12] | IC50 [2] | Compound | IC50 (THP-1 [5]; read-out: pIC50 (converted)) | Activity (THP-1 [6]) | IC50 (THP-1 [5]; read-out: IC50) |
| --- | --- | --- | --- | --- | --- | --- | --- | --- | --- | --- | --- | --- | --- | --- |
| < 3 µL/min/mg | 1000 nM | 170 µM (≈ 60.6 µg/mL) | – | > 10000 nM | – | – | 1.26 nM | – | – | – | FC(F)c1nnc(-c2ccc(Cn3nnc(-c4cccnc4)n3)nc2)o1 | – | – | – |
| < 3 µL/min/mg | 3160 nM | 52 µM (≈ 20.3 µg/mL) | < 13.7 h | > 10000 nM | 57.6 h | < 13.7 h | 6.31 nM | – | – | – | Fc1cc(-c2nnc(C(F)F)o2)cc(F)c1Cn1nnc(-c2ccccn2)n1 | > 251000 nM | inactive | – |
| < 3 µL/min/mg | 631 nM | 3.1 µM (≈ 1.21 µg/mL) | – | > 10000 nM | – | – | 1.58 nM | – | – | – | FC(F)c1nnc(-c2ccc(Cn3nnc(-c4cccc(Cl)c4)n3)nc2)o1 | – | – | – |
| < 3 µL/min/mg | 316 nM | 2.9 µM (≈ 1.03 µg/mL) | – | > 10000 nM | – | – | 0.794 nM | – | – | – | FC(F)c1nnc(-c2ccc(Cn3nnc(-c4ccccc4)n3)nc2)o1 | > 251000 nM | inactive | – |
| – | – | – | – | – | – | – | – | – | – | 200 nM | COc1cccc(CNC(=O)c2csc(-c3nnn(Cc4ccc(C(=O)NO)cc4)n3)c2)c1 | – | – | – |
| < 3 µL/min/mg | 1580 nM | 120 µM (≈ 42.9 µg/mL) | < 13.7 h | > 10000 nM | 26.4 h | 7.2 h | 15.8 nM | Unstable | – | – | FC(F)c1nnc(-c2cnc(Cn3nnc(-c4ccccn4)n3)nc2)o1 | – | – | – |
